Reference: the supplement of paper PMC10307832

Tests used:
Test in all cases: relative viability (nuclei count vs DMSO), 5 days (fraction); higher = more cells survive
[1] = compound: CN(NC(=O)CC(=O)NN(C)C(=S)c1ccccc1)C(=S)c1ccccc1 [Elesclomol] + CC(=O)Nc1cccc(-n2c(=O)n(C3CC3)c(=O)c3c(Nc4ccc(I)cc4F)n(C)c(=O)c(C)c32)c1 [Trametinib] (partner 0.02 µM)
Outline: (§1)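 One day after seeding in 1536-well plates, lung cancer cell lines were dosed by pin tool. Dosing was either single-drug or a fixed anchor-drug dose plus five library-drug doses (not always all listed) in √10 steps. After 5 days, nuclei were stained in one fix-and-stain step and counted on 4× images, and relative viability is the nuclei count of treated wells over that of vehicle wells, given as the median of duplicate plates.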

[2] = compound: CN(NC(=O)CC(=O)NN(C)C(=S)c1ccccc1)C(=S)c1ccccc1 [Elesclomol] + C[C@]1(O)C[C@@H](c2nc(-c3ccc4ccc(-c5ccccc5)nc4c3)c3c(N)nccn32)C1 [Linsitinib] (partner 1 µM)
Outline: as §1

[3] = compound: CN(NC(=O)CC(=O)NN(C)C(=S)c1ccccc1)C(=S)c1ccccc1 [Elesclomol] + O=C(c1cc(Cc2n[nH]c(=O)c3ccccc23)ccc1F)N1CCN(C(=O)C2CC2)CC1 [Olaparib] (partner 8 µM)
Outline: as §1

[4] = compound: CN(NC(=O)CC(=O)NN(C)C(=S)c1ccccc1)C(=S)c1ccccc1 [Elesclomol] + Nc1nc2[nH]cc(CCc3ccc(C(=O)N[C@@H](CCC(=O)O)C(=O)O)cc3)c2c(=O)[nH]1 [Pemetrexed] (partner 0.2 µM)
Outline: as §1

[5] = compound: CN(NC(=O)CC(=O)NN(C)C(=S)c1ccccc1)C(=S)c1ccccc1 [Elesclomol] + C[C@@H](Oc1cc(-c2cnn(C3CCNCC3)c2)cnc1N)c1c(Cl)ccc(F)c1Cl [Crizotinib] (partner 1 µM)
Outline: as §1

Cell Line	relative viability ([1]; first compound 0.003162 µM)	relative viability ([1]; first compound 0.01 µM)	relative viability ([1]; first compound 0.03162 µM)	relative viability ([1]; first compound 0.1 µM)	relative viability ([2]; first compound 0.003162 µM)	relative viability ([2]; first compound 0.01 µM)	relative viability ([2]; first compound 0.03162 µM)	relative viability ([2]; first compound 0.1 µM)	relative viability ([3]; first compound 0.003162 µM)	relative viability ([3]; first compound 0.01 µM)	relative viability ([3]; first compound 0.03162 µM)	relative viability ([3]; first compound 0.1 µM)	relative viability ([4]; first compound 0.003162 µM)	relative viability ([4]; first compound 0.01 µM)	relative viability ([4]; first compound 0.03162 µM)	relative viability ([4]; first compound 0.1 µM)	relative viability ([5]; first compound 0.003162 µM)	relative viability ([5]; first compound 0.01 µM)	relative viability ([5]; first compound 0.03162 µM)	relative viability ([5]; first compound 0.1 µM)
201T	0.707	0.749	0.742	0.682	1.08	1.01	1	1.01	0.843	0.843	0.844	0.705	0.361	0.369	0.309	0.394	1.01	0.976	0.978	0.99
A-427	0.761	0.411	0.236	0.183	1.1	1.08	1.14	0.578	0.52	0.424	0.232	0.164	0.937	0.707	0.201	0.186	0.959	0.744	0.895	0.277
ABC-1	–	–	–	–	0.267	0.207	0.308	0.212	0.23	0.428	0.248	0.342	–	–	–	–	0.195	0.136	0.223	0.289
BEN	0.915	0.65	0.749	0.395	0.763	0.403	0.322	0.239	0.828	0.68	0.656	0.362	0.888	0.68	0.408	0.319	0.803	0.397	0.304	0.214
CAL-12T	0.265	0.139	0.113	0.114	0.942	0.321	0.0785	0.0465	0.64	0.321	0.117	0.0718	1.03	0.576	0.119	0.0739	0.5	0.0867	0.0556	0.0701
COR-L23	0.55	0.22	0.239	0.101	0.985	0.511	0.32	0.244	0.314	0.254	0.143	0.0895	0.212	0.206	0.19	0.155	0.633	0.409	0.341	0.124
COR-L 105	0.465	0.478	0.316	0.311	0.715	0.494	0.371	0.202	0.713	0.575	0.365	0.275	1.13	1.17	0.392	0.27	0.787	0.407	0.288	0.207
ChaGo-K-1	0.932	0.802	0.571	0.15	–	–	–	–	0.423	0.396	0.232	0.125	0.268	0.255	0.204	0.147	0.596	0.376	0.288	0.258
EKVX	0.313	0.188	0.144	0.105	0.915	0.6	0.239	0.17	0.713	0.364	0.193	0.106	0.366	0.33	0.151	0.131	0.741	0.486	0.376	0.21
EMC-BAC-2	0.813	0.808	–	0.4	0.851	0.807	0.699	0.455	0.445	0.345	0.381	0.288	0.486	0.399	0.525	0.426	0.762	0.718	0.698	0.406
EPLC-272H	0.264	0.111	0.09	0.119	1.25	–	1.05	0.26	0.592	0.157	0.132	0.178	0.285	0.118	0.154	0.196	1.03	–	0.837	0.135
H3255	0.585	0.532	0.328	0.284	1.01	0.702	0.428	0.432	0.488	0.456	0.482	0.316	0.627	0.531	0.489	0.474	0.967	0.459	0.377	0.409
HARA	0.704	0.465	0.189	0.159	1.11	0.927	0.872	0.21	0.774	0.524	0.417	0.36	0.211	0.293	0.183	0.141	1.06	0.799	0.987	0.368
HCC-15	0.351	0.42	0.345	0.158	0.882	0.735	0.61	0.38	0.646	0.631	0.536	0.217	0.237	0.23	0.24	0.187	0.753	0.667	0.556	0.259
HCC-44	1.14	1.09	1.08	1.05	0.678	0.604	0.623	0.345	0.965	0.914	0.976	1	0.603	0.607	0.685	0.639	0.767	0.73	0.808	0.457
HCC-78	0.7	0.549	0.674	0.722	0.425	0.521	0.497	0.408	0.735	0.574	0.641	0.945	0.901	0.856	0.911	0.956	0.356	0.325	0.326	0.336
HCC-366	0.383	0.311	0.114	0.0129	0.689	0.663	0.622	0.0082	0.369	0.31	0.108	0.0162	0.167	0.156	0.116	0.0342	0.566	0.616	0.112	0.0109
HCC-827	0.571	0.442	0.555	0.504	0.959	0.851	1.03	0.707	0.58	0.522	0.672	0.475	0.275	0.272	0.258	0.246	0.965	0.94	0.96	0.675

Cell Line	relative viability ([1]; first compound 0.003162 µM)	relative viability ([1]; first compound 0.01 µM)	relative viability ([1]; first compound 0.03162 µM)	relative viability ([1]; first compound 0.1 µM)	relative viability ([2]; first compound 0.003162 µM)	relative viability ([2]; first compound 0.01 µM)	relative viability ([2]; first compound 0.03162 µM)	relative viability ([2]; first compound 0.1 µM)	relative viability ([3]; first compound 0.003162 µM)	relative viability ([3]; first compound 0.01 µM)	relative viability ([3]; first compound 0.03162 µM)	relative viability ([3]; first compound 0.1 µM)	relative viability ([4]; first compound 0.003162 µM)	relative viability ([4]; first compound 0.01 µM)	relative viability ([4]; first compound 0.03162 µM)	relative viability ([4]; first compound 0.1 µM)	relative viability ([5]; first compound 0.003162 µM)	relative viability ([5]; first compound 0.01 µM)	relative viability ([5]; first compound 0.03162 µM)	relative viability ([5]; first compound 0.1 µM)
HOP-62	0.397	0.385	0.386	0.237	0.909	0.94	0.994	0.184	0.487	0.191	0.0744	0.08	0.369	0.333	0.224	0.113	0.952	0.916	0.919	0.256
IA-LM	–	–	–	–	0.47	0.265	0.134	0.022	0.892	0.526	0.181	0.115	–	–	–	–	0.746	0.343	0.0493	0.0241
LC-2-ad	0.888	0.811	0.272	0.197	0.91	0.761	0.117	0.112	0.722	0.622	0.277	0.197	0.294	0.269	0.236	0.201	0.423	0.251	0.194	0.238
LCLC-97TM1	0.198	0.192	0.195	0.0969	0.175	0.16	0.141	0.116	0.402	0.295	0.379	0.0862	0.159	0.133	0.164	0.0782	0.283	0.253	0.319	0.0642
LCLC-103H	0.637	0.671	0.686	0.683	1.11	1.02	1.01	1.07	0.724	0.737	0.815	0.639	0.476	0.483	0.467	0.431	0.948	0.937	0.993	1.02
LK-2	0.468	0.454	0.428	0.115	0.428	0.21	0.0808	0.0624	0.65	0.503	0.332	0.0869	–	0.289	0.276	0.128	0.224	0.213	0.124	0.106
LOU-NH91	0.814	0.733	0.769	0.643	0.925	0.856	0.703	0.542	0.898	0.825	0.829	0.606	0.401	0.404	0.487	0.375	0.735	0.706	0.616	0.57
LU99A	0.618	0.371	0.58	0.339	0.544	–	0.615	0.117	0.286	0.223	0.247	0.173	0.188	0.183	0.185	0.198	0.545	–	0.648	0.121
LXF-289	0.676	0.65	0.663	0.423	0.941	0.863	0.938	0.693	1.11	1.01	0.939	0.544	0.894	0.971	0.867	0.552	0.811	0.775	0.767	0.588
NCI-H522	0.698	0.792	0.821	0.403	–	–	–	–	0.617	0.812	0.618	0.431	1.08	1.09	1.18	0.641	–	–	–	–
NCI-H727	0.412	0.362	0.394	0.376	0.297	0.217	0.117	0.0471	0.587	0.7	0.712	0.416	–	–	–	–	0.681	0.453	0.096	0.0428
NCI-H1395	1.01	0.626	0.294	0.215	0.857	0.347	0.716	0.26	0.449	0.364	0.254	0.22	0.829	0.436	0.201	0.183	–	–	–	–
NCI-H1650	0.202	0.188	0.116	0.102	–	–	–	–	0.583	0.291	0.145	0.0879	0.304	0.294	0.333	0.095	0.325	0.221	0.255	0.122
NCI-H1703	–	–	–	–	0.179	0.122	0.0723	0.0652	0.173	0.0985	0.093	0.0575	–	–	–	–	0.151	0.137	0.0928	0.0853
NCI-H1793	0.339	0.414	0.318	0.111	0.901	0.733	0.927	0.25	0.818	0.692	0.386	0.0938	0.833	0.643	0.855	0.102	–	–	–	–
NCI-H2170	0.949	0.95	0.898	0.607	–	–	–	–	0.55	0.558	0.638	0.344	0.28	0.28	0.27	0.26	1.26	0.956	1.17	0.653
SW 900	0.902	0.399	0.197	0.14	–	–	–	–	0.774	0.596	0.264	0.0917	0.495	0.453	0.289	0.0977	–	–	–	–
